Reference: patent US9914760B2, “Methods of identifying, isolating and using odorant and aroma receptors” (Firmenich SA, priority 2013, dated 2018)

Tests used:
Assay in all cases: cell-based calcium-flux assay, HEK293T with Gα15
OR11G2 = biological target: T1, OR11G2 (Homo sapiens, UniProt Q8NGC1); settings: increasing concentrations; FIG. 6C
T1 construct: expressed in transfected cells
T1 sequence (Q8NGC1 35-345): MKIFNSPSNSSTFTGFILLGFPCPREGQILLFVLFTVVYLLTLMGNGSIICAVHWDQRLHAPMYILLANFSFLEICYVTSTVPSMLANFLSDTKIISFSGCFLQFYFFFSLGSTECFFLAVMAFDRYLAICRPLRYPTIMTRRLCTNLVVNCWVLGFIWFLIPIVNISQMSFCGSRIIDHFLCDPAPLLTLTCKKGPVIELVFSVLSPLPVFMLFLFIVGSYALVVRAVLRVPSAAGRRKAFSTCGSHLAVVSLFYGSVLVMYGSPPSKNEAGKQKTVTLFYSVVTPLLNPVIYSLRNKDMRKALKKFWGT
From the text: (§1) The activity of candidate human indole and skatole malodors receptors OR52N2 (SEQ ID NO: 11 and SEQ ID NO: 12), OR11G2 (SEQ ID NO: 13 and SEQ ID NO: 14, OR5AC2 (SEQ ID NO: 75 and SEQ ID NO: 76), OR4C15 (SEQ ID NO: 79 and SEQ ID NO: 80), OR8S1 (SEQ ID NO: 83 and SEQ ID NO: 84), OR11H6 (SEQ ID NO: 15 and SEQ ID NO: 16) and OR11H4 (SEQ ID NO: 49 and SEQ ID NO: 50) and candidate mouse indole and skatole malodors receptors Olfr665 (SEQ ID NO: 9 and SEQ ID NO 10) and Olfr740 (SEQ ID NO: 1 and SEQ ID NO 2) were confirmed in cell-based calcium-flux assays (FIGS. 6A to 6J). Cells stably co-expressing Rho-tagged human OR52N2 (FIG. 6A, B) or OR11G2 (FIG. 6C) and Gα15 (SEQ ID NO: 25) were exposed to increasing concentrations of skatole or indole. FIG. 6B is a repeat experiment showing similar activity of OR52N2 with indole and skatole. Odorant-induced OR52N2 or OR11G2 activity was detected by measuring the maximum Calcium 5 dye (Molecular Devices) fluorescence change following odorant exposure. Activity is defined as the baseline corrected Relative Fluorescent Units (RFU) ratios normalized to the highest RFU in the experiment in FIG. 6A. […] A cell line lacking a receptor, for example hOR52N2, was used as a control for non-specific activity at high concentrations (‘Indole control’ and ‘Skatole control’). The human receptor OR52N2 (SEQ ID NO: 11 and SEQ ID NO: 12) was identified because of its sequence similarity to mouse Olfr665 (SEQ ID NO: 10), an indole/skatole receptor isolated from olfactory neurons responding to both indole and skatole. The human receptor OR11G2 (SEQ ID NO: 13 and SEQ ID NO: 14) was identified because of its sequence similarity to mouse Olfr740 (SEQ ID NO: 2), an indole/skatole receptor isolated from olfactory neurons responding to both indole and skatole. The receptors were modified with the Rho sequence and stably expressed in HEK 293T cells. Further examples show indole and skatole dose-response curves for human receptors OR5AC2, OR4C15, OR8S1, OR11H6, OR11H4 and mouse receptors Olfr665 and Olfr740 (FIG. 6D-J). The human receptor OR5AC2 (SEQ ID NO: 75 and SEQ ID NO: 76) was identified because of its sequence similarity to mouse Olfr207 (SEQ ID NO: 78), a receptor isolated from olfactory neurons responding to both indole and skatole. The human receptor OR4C15 (SEQ ID NO: 79 and SEQ ID NO: 80) was identified because of its sequence similarity to mouse Olfr211 (SEQ ID NO: 82), a receptor isolated from olfactory neurons responding to both indole and skatole. The human receptor OR8S1 (SEQ ID NO: 83 and SEQ ID NO: 84) was identified because of its sequence similarity to mouse Olfr257 (SEQ ID NO: 86), a receptor isolated from olfactory neurons responding to both indole and skatole. The human receptor OR11H6 (SEQ ID NO: 15 and SEQ ID NO: 16) was identified because of its sequence similarity to mouse Olfr745 (SEQ ID NO: 8), a receptor isolated from olfactory neurons responding to both indole and skatole. The human receptor OR11H4 (SEQ ID NO: 49 and SEQ ID NO: 50) was identified because of its sequence similarity to mouse Olfr746 (SEQ ID NO: 38), a receptor isolated from olfactory neurons responding to both indole and skatole. The mouse receptor Olfr665 (SEQ ID NO: 9 and SEQ ID NO: 10) was identified directly from NGS data from isolated olfactory neurons responding to both indole and skatole. The mouse receptor Olfr740 (SEQ ID NO: 1 and SEQ ID NO: 2) was identified directly from NGS data from isolated olfactory neurons responding to both indole and skatole. Co-expression of the human G alpha subunit Gα15 activates the Gq transduction pathway that leads to an internal Ca2+ increase upon binding to the appropriate ligand.

OR11H4 = biological target: T2, OR11H4 (Homo sapiens, UniProt Q8NGC9); settings: dose-response curves FIG. 6D-J
T2 construct: expressed in transfected cells
T2 sequence (Q8NGC9 1-324): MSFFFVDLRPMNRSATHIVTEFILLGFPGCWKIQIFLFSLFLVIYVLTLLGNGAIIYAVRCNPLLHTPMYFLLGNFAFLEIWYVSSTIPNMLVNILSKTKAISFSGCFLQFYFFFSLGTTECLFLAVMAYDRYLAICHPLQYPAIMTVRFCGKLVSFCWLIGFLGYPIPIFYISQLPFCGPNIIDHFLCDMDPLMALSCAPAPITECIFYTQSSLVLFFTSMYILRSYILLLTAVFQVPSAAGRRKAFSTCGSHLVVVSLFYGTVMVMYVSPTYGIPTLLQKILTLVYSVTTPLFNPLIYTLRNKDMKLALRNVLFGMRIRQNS
From the text: as §1

OR4C15 = biological target: T3, OR4C15 (Homo sapiens, UniProt Q8NGM1); settings: dose-response curves FIG. 6D-J
T3 construct: expressed in transfected cells
T3 sequence (Q8NGM1 with tags, fused parts or gaps): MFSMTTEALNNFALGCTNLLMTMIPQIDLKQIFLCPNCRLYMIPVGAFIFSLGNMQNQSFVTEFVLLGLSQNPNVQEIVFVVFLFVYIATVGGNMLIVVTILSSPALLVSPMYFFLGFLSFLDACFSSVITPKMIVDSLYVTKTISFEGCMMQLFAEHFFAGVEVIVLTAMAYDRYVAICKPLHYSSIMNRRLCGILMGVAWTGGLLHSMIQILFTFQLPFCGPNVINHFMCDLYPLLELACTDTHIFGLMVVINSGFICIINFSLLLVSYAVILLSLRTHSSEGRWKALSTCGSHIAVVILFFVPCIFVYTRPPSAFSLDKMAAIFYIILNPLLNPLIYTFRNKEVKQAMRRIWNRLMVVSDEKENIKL
From the text: as §1

Structure (SMILES) | receptor activity (Calcium 5 dye fluorescence change) (OR11G2) | receptor response in vitro (OR11H4) | receptor response in vitro (OR4C15)
Cc1c[nH]c2ccccc12 [skatole, 3-methyl indole] | dose-dependent increase of receptor activity | responded | responded
c1ccc2[nH]ccc2c1 [indole] | dose-dependent increase of receptor activity | responded | responded
